We go through 10 molecules from article PMC4843002, “Identification of pyrazolopyridazinones as PDEδ inhibitors” (Nature Communications, 2016).

The target in the experiment is PDEδ (Homo sapiens, UniProt O43924). Briefly: competitive fluorescence polarization displacement assay. The experiment is classed as binding. The procedure:
The Kd values were determined by the fluorescence polarization competition-binding assay, which we developed before.
(In general: Fluorescence polarisation rises when a labelled molecule tumbles more slowly, as on binding a larger partner.)
In turn, `Cc1ccc(CNC(=O)CCCn2nc(C)c3c(C)n(-c4ccccc4)nc3c2=O)cc1` [2e] showed a Kd of 96 ± 14 nM.
The molecule `COc1ccc(CNC(=O)CCCn2nc(C)c3c(C)n(-c4ccccc4)nc3c2=O)cc1` [2d] returned a Kd of 81 ± 21 nM.
The molecule `Cc1nn(CCCC(=O)NCc2ccco2)c(=O)c2nn(-c3ccccc3)c(C)c12` [2b] gave an equilibrium dissociation constant (Kd) of 136 ± 55 nM.
`Cc1ccc(-n2nc3c(=O)n(CCCC(=O)NCc4ccco4)nc(C)c3c2C)cc1` [2g] showed a Kd of 50 ± 16 nM. This Kd lies about 2.7-fold lower than the previous one.
Take `Cc1nn(CCCC(=O)NCCc2ccccc2)c(=O)c2nn(-c3ccccc3)c(C)c12` [2f]: the affinity, expressed as Kd, was 29 ± 7 nM.
To `Cc1ccc(-n2nc3c(=O)n(CCCC(=O)NCc4ccccc4)nc(C)c3c2C)cc1` [2h] belongs 17 ± 9 nM.
The molecule `Cc1c(Cl)cccc1NC(=O)CCCn1nc(C)c2c(C)n(-c3ccccc3)nc2c1=O` [2a] displayed a Kd of 5 ± 2 nM.
On to `Cc1ccc(-n2nc3c(=O)n(CCCC(=O)NCCc4ccccc4)nc(C)c3c2C)cc1` [2i], for which binding was put at a Kd of 6 ± 2 nM.
In turn, `Cc1ccc(CCNC(=O)CCCn2nc(C)c3c(C)n(-c4ccc(C)cc4)nc3c2=O)cc1` [2j] came in with a Kd of 5 ± 3 nM.
To `Cc1nn(CCCC(=O)NCc2ccccc2)c(=O)c2nn(-c3ccccc3)c(C)c12` [2c] belongs 42 ± 15 nM.

Broadly, the Kd is the constant that tells how readily two partners part at equilibrium. High values mean lower affinity, low ones higher affinity.
